For this assay, the system named is NL-RLuc virus. Description: Inhibition of HIV replication (NL-RLuc luciferase reporter virus in MT-2 cells). Type of assay: cell-based. The conditions noted are these: Human immunodeficiency virus 1, MT2, 120 h. The method, boiled down: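 MT-2 cells were infected with NL4-3-derived virus carrying Renilla luciferase in place of part of nef, with serial compound dilutions, in RPMI 1640 with 10% FBS. After 5 days, virus growth was read as luciferase signal. EC50 came from the median effect equation over at least 2 experiments.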
For orientation: A reporter such as luciferase makes a cellular process visible.

Read-outs that look alike come from different tables or passages of the source.

As for `Cc1nc(C)c([C@H](OC(C)(C)C)C(=O)O)c(N2CCC3(CCCCC3)C2)c1-c1ccc(OCCc2ccc(F)cc2)cc1` [Example 62, (S)-2-(tert-Butoxy)-2-(5-(4-(4-fluorophenethoxy)phenyl)-2,6-dimethyl-4-(2-azaspiro[4.5]decan-2-yl)pyridin-3-yl)acetic acid], the EC50 by setting is: (read-out: Activity) less than 0.1 µM; (read-out: EC50 μM) 0.017 µM.
Regarding `Cc1nc(C)c([C@H](OC(C)(C)C)C(=O)O)c(N2CCC3(CCCCC3)C2)c1-c1ccc(C(=O)NCc2ccccc2)cc1` [Example 63, (S)-2-(5-(4-(Benzylcarbamoyl)phenyl)-2,6-dimethyl-4-(2-azaspiro[4.5]decan-2-yl)pyridin-3-yl)-2-(tert-butoxy)acetic acid], the EC50 (read-out: Activity) was less than 0.1 µM.
On the same count and under the same terms, for `Cc1nc(C)c([C@H](OC(C)(C)C)C(=O)O)c(N2CCC3(CCCCCC3)C2)c1-c1ccc(OCCc2ccc(F)cc2)cc1` [Example 64, (S)-2-(tert-Butoxy)-2-(5-(4-(4-fluorophenethoxy)phenyl)-2,6-dimethyl-4-(2-azaspiro[4.6]undecan-2-yl)pyridin-3-yl)acetic acid] the value was less than 0.1 µM; for `Cc1nc(C)c([C@H](OC(C)(C)C)C(=O)O)c(N2CCC3(CCCCCC3)C2)c1-c1ccc(C(=O)NCc2ccccc2)cc1` [Example 65, (S)-2-(5-(4-(Benzylcarbamoyl)phenyl)-2,6-dimethyl-4-(2-azaspiro[4.6]undecan-2-yl)pyridin-3-yl)-2-(tert-butoxy) acetic acid], less than 0.1 µM; for `Cc1nc(C)c([C@H](OC(C)(C)C)C(=O)O)c(N2CCC3(CCCO3)CC2)c1-c1ccc(OCCc2ccc(F)cc2)cc1` [Example 66, (S)-2-(tert-Butoxy)-2-(5-(4-(4-fluorophenethoxy)phenyl)-2,6-dimethyl-4-(1-oxa-8-azaspiro[4.5]decan-8-yl)pyridin-3-yl)acetic acid], less than 0.1 µM.
Still for that read-out and setting: the result for `Cc1nc(C)c([C@H](OC(C)(C)C)C(=O)O)c(N2CCC3(CCOC3)CC2)c1-c1ccc(OCCc2ccc(F)cc2)cc1` [Example 67, (S)-2-(tert-Butoxy)-2-(5-(4-(4-fluorophenethoxy)phenyl)-2,6-dimethyl-4-(2-oxa-8-azaspiro[4.5]decan-8-yl)pyridin-3-yl)acetic acid] reads less than 0.1 µM.
With `Cc1nc(C)c([C@H](OC(C)(C)C)C(=O)O)c(N2CCC3(CCNC3)CC2)c1-c1ccc(OCCc2ccc(F)cc2)cc1` [Example 68, (S)-2-(tert-Butoxy)-2-(5-(4-(4-fluorophenethoxy)phenyl)-2,6-dimethyl-4-(2,8-diazaspiro[4.5]decan-8-yl)pyridin-3-yl)acetic acid], the EC50 runs as follows: (read-out: Activity) 0.1 to 1 µM; (read-out: EC50 μM) 0.731 µM.
As to `Cc1nc(C)c([C@H](OC(C)(C)C)C(=O)O)c(N2CCC3(CCNC3)CC2)c1-c1ccc(C(=O)NCc2ccccc2)cc1` [Example 69, (S)-2-(5-(4-(Benzylcarbamoyl)phenyl)-2,6-dimethyl-4-(2,8-diazaspiro[4.5]decan-8-yl)pyridin-3-yl)-2-(tert-butoxy)acetic acid], the EC50 was greater than 1 µM (read-out: Activity) and 9.66 µM (read-out: EC50 μM).
For `Cc1nc(C)c([C@H](OC(C)(C)C)C(=O)O)c(N2CCC3(CC2)CC3(F)F)c1-c1ccc(OCCc2ccc(F)cc2)cc1` [Example 70, (S)-2-(tert-Butoxy)-2-(4-(1,1-difluoro-6-azaspiro[2.5]octan-6-yl)-5-(4-(4-fluorophenethoxy)phenyl)-2,6-dimethylpyridin-3-yl)acetic acid], the EC50 (read-out: Activity) is less than 0.1 µM.
In the case of `Cc1nc(C)c([C@H](OC(C)(C)C)C(=O)O)c(N2CCC3(CC2)CC3(F)F)c1-c1ccc(C(=O)NCc2ccccc2)cc1` [Example 71, (S)-2-(5-(4-(Benzylcarbamoyl)phenyl)-4-(1,1-difluoro-6-azaspiro[2.5]octan-6-yl)-2,6-dimethylpyridin-3-yl)-2-(tert-butoxy)acetic acid], the EC50 reads like this: (read-out: Activity) less than 0.1 µM; (read-out: EC50 μM) 0.018 µM.

The values above are taken from patent US20190010139A1 (priority 2015, published 2019).
